Laboratory results: US6355799B1, “Substituted benzene compounds, process for their preparation, and herbicidal and defoliant compositions containing them” (ISK Americas Incorporated, priority 1997, dated 2002)

Tests used:
Assay type in all cases: in vivo
[1] = test system: redroot pigweed (Amaranthus retroflexus, AMARE); experiment: Pre-emerge test, greenhouse herbicide activity screening; conditions: rated 14 days after application, 0 = no damage, 100 = complete death
Method in brief: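 Compounds in acetone were track-sprayed at 15-1000 g ai/ha (187 l/ha) on sandy loam pots: pre-emerge one day after seeding, post-emerge at 2-3 leaf stage with 0.25% v/v non-ionic surfactant. Phytotoxicity was rated 14 days later on a 0 (no damage) to 100 (complete death) scale.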

[2] = test system: barnyardgrass (Echinochloa crus-galli, ECHCG); experiment: as above; conditions: rated 14 days after application, 0 = no damage, 100 = complete death
Method in brief: (§1)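 Rating: 0–100 visual injury, 14 DAA. Application: acetone, 187 l/ha, 15–1000 g ai/ha, flat-fan track sprayer with nozzle 40–45 cm above soil or canopy. Post-emerge runs used 0.25% v/v surfactant on 2–3 leaf plants.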

[3] = test system: green foxtail (Setaria viridis, SETVI); experiment: as above; conditions: rated 14 days after application, 0 = no damage, 100 = complete death
Method in brief: as §1

[4] = test system: ivyleaf morningglory (Ipomoea hederacea, IPOHE); experiment: as above; conditions: rated 14 days after application, 0 = no damage, 100 = complete death
Method in brief: as §1

[5] = test system: johnsongrass (Sorghum halepense, SORHA); experiment: as above; conditions: rated 14 days after application, 0 = no damage, 100 = complete death
Method in brief: as §1

[6] = test system: lambsquarters (Chenopodium album, CHEAL); experiment: as above; conditions: rated 14 days after application, 0 = no damage, 100 = complete death
Method in brief: as §1

[7] = test system: large crabgrass (Digitaria sanguinalis, DIGSA); experiment: as above; conditions: rated 14 days after application, 0 = no damage, 100 = complete death
Method in brief: as §1

[8] = test system: sicklepod (Cassia obtusifolia, CASOB); experiment: as above; conditions: rated 14 days after application, 0 = no damage, 100 = complete death
Method in brief: as §1

[9] = test system: velvetleaf (Abutilon theophrasti, ABUTH); experiment: as above; conditions: rated 14 days after application, 0 = no damage, 100 = complete death
Method in brief: as §1

[10] = test system: field corn (Zea mays L., var. Dekalb 535, CORN); experiment: Pre-emerge test, crop safety; conditions: rated 14 days after application, 0 = no damage, 100 = complete death
Method in brief: (§2)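 Fourteen days after spraying, crop and weed injury was graded visually from 0, no effect, to 100, every plant dead. Test substances were dissolved in acetone and applied at 15–1000 g ai/ha with a flat-fan nozzle. Application was either pre-emergence, one day after sowing, or post-emergence at the 2–3 leaf stage.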

[11] = test system: upland rice (Oryza sp., var. Tebonnet, RICE); experiment: Pre-emerge test, crop safety; conditions: rated 14 days after application, 0 = no damage, 100 = complete death
Method in brief: as §2

[12] = test system: barnyardgrass (Echinochloa crus-galli, ECHCG); experiment: Post-emerge test, greenhouse herbicide activity screening; conditions: phytotoxicity rating 0-100 (0 no damage, 100 complete death), 14 days after application
Method in brief: (§3)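 Compounds in acetone were track-sprayed at 15–1000 g ai/ha: pre-emergence onto soil sown the previous day, then top-watered to incorporate and later bottom-watered; post-emergence onto 2–3 leaf plants with 0.25% v/v surfactant, bottom-watered only. Ratings on a 0–100 phytotoxicity scale were taken at day 14.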

[13] = test system: green foxtail (Setaria viridis, SETVI); experiment: as above; conditions: phytotoxicity rating 0-100 (0 no damage, 100 complete death), 14 days after application
Method in brief: as §3

[14] = test system: ivyleaf morningglory (Ipomoea hederacea, IPOHE); experiment: as above; conditions: phytotoxicity rating 0-100 (0 no damage, 100 complete death), 14 days after application
Method in brief: as §3

[15] = test system: johnsongrass (Sorghum halepense, SORHA); experiment: as above; conditions: phytotoxicity rating 0-100 (0 no damage, 100 complete death), 14 days after application
Method in brief: as §3

[16] = test system: lambsquarters (Chenopodium album, CHEAL); experiment: as above; conditions: phytotoxicity rating 0-100 (0 no damage, 100 complete death), 14 days after application
Method in brief: as §3

[17] = test system: large crabgrass (Digitaria sanguinalis, DIGSA); experiment: as above; conditions: phytotoxicity rating 0-100 (0 no damage, 100 complete death), 14 days after application
Method in brief: as §3

[18] = test system: redroot pigweed (Amaranthus retroflexus, AMARE); experiment: as above; conditions: phytotoxicity rating 0-100 (0 no damage, 100 complete death), 14 days after application
Method in brief: as §3

[19] = test system: sicklepod (Cassia obtusifolia, CASOB); experiment: as above; conditions: phytotoxicity rating 0-100 (0 no damage, 100 complete death), 14 days after application
Method in brief: as §3

[20] = test system: velvetleaf (Abutilon theophrasti, ABUTH); experiment: as above; conditions: phytotoxicity rating 0-100 (0 no damage, 100 complete death), 14 days after application
Method in brief: as §3

[21] = test system: field corn (Zea mays L., var. Dekalb 535, CORN); experiment: Post-emerge test, crop safety; conditions: phytotoxicity rating 0-100 (0 no damage, 100 complete death), 14 days after application
Method in brief: (§4)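 Plants grown in 10 cm pots of sandy loam mix received acetone-dissolved compounds through a moving flat-fan nozzle. Doses ranged from 15 to 1000 g ai/ha. Pre-emerge pots were seeded one day earlier, post-emerge pots 8–21 days earlier. Fourteen days on, each pot was graded 0–100 for damage.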

[22] = test system: upland rice (Oryza sp., var. Tebonnet, RICE); experiment: Post-emerge test, crop safety; conditions: phytotoxicity rating 0-100 (0 no damage, 100 complete death), 14 days after application
Method in brief: as §4

## COc1c(Cl)cc(F)c(-n2c(=O)cc(C(F)(F)F)n(C)c2=O)c1NC(=O)c1ccc(C)c(C)c1 [2-32]
[1]; 63 g ai/ha
  Pre-emerge Herbicidal Activity, phytotoxicity rating (0-100), AMARE: 100
[1]; 250 g ai/ha
  Pre-emerge Herbicidal Activity, phytotoxicity rating (0-100), AMARE: 100
[2]; 63 g ai/ha
  Pre-emerge Herbicidal Activity, phytotoxicity rating (0-100), ECHCG: 99
[2]; 250 g ai/ha
  Pre-emerge Herbicidal Activity, phytotoxicity rating (0-100), ECHCG: 100
[3]; 63 g ai/ha
  Pre-emerge Herbicidal Activity, phytotoxicity rating (0-100), SETVI: 100
[3]; 250 g ai/ha
  Pre-emerge Herbicidal Activity, phytotoxicity rating (0-100), SETVI: 100
[4]; 63 g ai/ha
  Pre-emerge Herbicidal Activity, phytotoxicity rating (0-100), IPOHE: 100
[4]; 250 g ai/ha
  Pre-emerge Herbicidal Activity, phytotoxicity rating (0-100), IPOHE: 100
[5]; 63 g ai/ha
  Pre-emerge Herbicidal Activity, phytotoxicity rating (0-100), SORHA: 90
[5]; 250 g ai/ha
  Pre-emerge Herbicidal Activity, phytotoxicity rating (0-100), SORHA: 100
[6]; 63 g ai/ha
  Pre-emerge Herbicidal Activity, phytotoxicity rating (0-100), CHEAL: 100
[6]; 250 g ai/ha
  Pre-emerge Herbicidal Activity, phytotoxicity rating (0-100), CHEAL: 100
[7]; 63 g ai/ha
  Pre-emerge Herbicidal Activity, phytotoxicity rating (0-100), DIGSA: 100
[7]; 250 g ai/ha
  Pre-emerge Herbicidal Activity, phytotoxicity rating (0-100), DIGSA: 100
[8]; 63 g ai/ha
  Pre-emerge Herbicidal Activity, phytotoxicity rating (0-100), CASOB: 95
[8]; 250 g ai/ha
  Pre-emerge Herbicidal Activity, phytotoxicity rating (0-100), CASOB: 100
[9]; 63 g ai/ha
  Pre-emerge Herbicidal Activity, phytotoxicity rating (0-100), ABUTH: 100
[9]; 250 g ai/ha
  Pre-emerge Herbicidal Activity, phytotoxicity rating (0-100), ABUTH: 100
[10]; 63 g ai/ha
  Pre-emerge phytotoxicity rating (0-100), crop damage, CORN: 40
[10]; 250 g ai/ha
  Pre-emerge phytotoxicity rating (0-100), crop damage, CORN: 95
[11]; 63 g ai/ha
  Pre-emerge phytotoxicity rating (0-100), crop damage, RICE: 80
[11]; 250 g ai/ha
  Pre-emerge phytotoxicity rating (0-100), crop damage, RICE: 99
[12]; 63 g ai/ha
  Post-emerge Herbicidal Activity ECHCG: 0
[12]; 250 g ai/ha
  Post-emerge Herbicidal Activity ECHCG: 90
[13]; 63 g ai/ha
  Post-emerge Herbicidal Activity SETVI: 0
[13]; 250 g ai/ha
  Post-emerge Herbicidal Activity SETVI: 90
[14]; 63 g ai/ha
  Post-emerge Herbicidal Activity IPOHE: 100
[14]; 250 g ai/ha
  Post-emerge Herbicidal Activity IPOHE: 100
[15]; 63 g ai/ha
  Post-emerge Herbicidal Activity SORHA: 50
[15]; 250 g ai/ha
  Post-emerge Herbicidal Activity SORHA: 95
[16]; 63 g ai/ha
  Post-emerge Herbicidal Activity CHEAL: 95
[16]; 250 g ai/ha
  Post-emerge Herbicidal Activity CHEAL: 100
[17]; 63 g ai/ha
  Post-emerge Herbicidal Activity DIGSA: 0
[17]; 250 g ai/ha
  Post-emerge Herbicidal Activity DIGSA: 70
[18]; 63 g ai/ha
  Post-emerge Herbicidal Activity AMARE: 100
[18]; 250 g ai/ha
  Post-emerge Herbicidal Activity AMARE: 100
[19]; 63 g ai/ha
  Post-emerge Herbicidal Activity CASOB: 80
[19]; 250 g ai/ha
  Post-emerge Herbicidal Activity CASOB: 100
[20]; 63 g ai/ha
  Post-emerge Herbicidal Activity ABUTH: 100
[20]; 250 g ai/ha
  Post-emerge Herbicidal Activity ABUTH: 100
[21]; 63 g ai/ha
  Post-emerge Herbicidal Activity CORN (crop damage): 30
[21]; 250 g ai/ha
  Post-emerge Herbicidal Activity CORN (crop damage): 95
[22]; 63 g ai/ha
  Post-emerge Herbicidal Activity RICE (crop damage): 30
[22]; 250 g ai/ha
  Post-emerge Herbicidal Activity RICE (crop damage): 80
